Reference: patent US20130137629A1, “COMBINATION TREATMENT FOR METABOLIC DISORDERS” (WELLSTAT THERAPEUTICS CORPORATION, priority 2006, published 2013)

What was measured:
late-stage db/db mice = test: Example 1: late-stage db/db mice treated daily for 4 weeks; serum glucose, serum insulin and islet insulin; format: in vivo
Description: Serum glucose and insulin and pancreatic insulin were measured.

db/db mice [1] = test: Example 2: db/db mice with glucose above 400 mg/dL treated for 4 weeks; circulating glucose and pancreatic insulin (ECL assay); format: in vivo; settings: Compound BI 100 mg/kg by oral gavage, exendin 3 μg/kg or 10 μg/kg i.p.
Description: Peripheral blood glucose levels of db/db mice was monitored. When the glucose levels exceeded 400 mg/dL the mice were divided into groups of 6 mice each. The mice in each group were given either vehicle or Compound BI (100 mg/kg by oral gavage)+/−i.p. injections of exendin-amide (Bachem, King of Prussia, PA) as indicated below for 4 weeks. • 1) Vehicle • 2) Vehicle+Exendin (3 μg/kg) • 3) Vehicle+Exendin (10 μg/kg) • 4) Compound BI • 5) Compound BI+Exendin (3 μg/kg) • 6) Compound BI+Exendin (10 μg/kg)
After four weeks of treatment, the mice were bled via the retroorbital sinus and sera sent to Anilytics, Inc. (Gaithersburg, Md.) for analysis of circulating glucose levels. The pancreata were collected, weighed, flash frozen and then processed for pancreatic insulin assays. Briefly, the pancreas was placed into pancreatic extraction solution (75% ethanol and 25% 0.15N HCl) and the volume adjusted to 1 mL per 100 mg of pancreas. The pancreas was then sonicated and stored at −20° C. overnight. The next day, the samples were centrifuged at 2500 rpm for 5 minutes at 4° C. to pellet unsolubilized material. 1.5 mL of supernatant was placed in an Eppendorf tube and spun in a microcentrifuge at 1300 rpm for 20 minutes at 4° C. to pellet any remaining unsolubilized material. […] The samples were then read on an M384 instrument (BioVeris Corp., Gaithersburg, Md.). […]

db/db mice [2] = settings: previous studies; cited from earlier work
db/db mice [3] = test: Example 5: ten week-old db/db mice, Compound BI +/- P32/98 for 4 weeks; format: in vivo; settings: Compound BI 100 mg/kg p.o., P32/98 10 mg/kg twice a day by gavage; for Circulating glucose levels: FIG. 11; for Pancreatic insulin: FIG. 12
Description: Ten week-old db/db mice were given vehicle or Compound BI (100 mg/kg, p.o.)+/−P32/98 (10 mg/kg, twice a day by gavage) as indicated for 4 weeks. Assays for circulating glucose and pancreatic insulin were conducted as in Example 3.

[4] = test system: streptozotocin-induced diabetes; settings: Pospisilik et al., Diabetes 52:741-750, 2003; cited from earlier work

SMILES | Serum glucose (late-stage db/db mice; daily for 4 weeks, Compound BI 100 mg/kg/day p.o., Exendin-4 amide 10 microgram/day i.p., FIG. 1) | Islet insulin (late-stage db/db mice; daily for 4 weeks, Compound BI 100 mg/kg/day p.o., Exendin-4 amide 10 microgram/day i.p., FIG. 2) | Serum insulin (late-stage db/db mice; daily for 4 weeks, Compound BI 100 mg/kg/day p.o., Exendin-4 amide 10 microgram/day i.p., FIG. 3) | Insulin resistance (late-stage db/db mice; inferred from glucose lowering without a significant increase in serum insulin, 4 weeks) | Circulating glucose levels (db/db mice [1]; FIG. 4) | Pancreatic insulin (db/db mice [1]; FIG. 5) | Islet insulin content (db/db mice [2]) | Circulating glucose levels (db/db mice [3]) | Pancreatic insulin (db/db mice [3]) | Activity in streptozotocin-induced diabetes [4]
Cc1cccc(C)c1COc1cccc(C(=O)CCC(=O)O)c1 [Compound BI, 4-(3-(2,6-Dimethylbenzyloxy)phenyl)-4-oxobutyric acid] | reduced serum glucose substantially | had more insulin than either of those two groups | without a significant increase in serum insulin | reduced insulin resistance | significant reduction in circulating glucose levels | corresponding increase in pancreatic insulin | preserves islet insulin content | reduced circulating glucose levels | increased pancreatic insulin levels | –
CC[C@H](C)[C@H](N)C(=O)N1CCSC1 [P32/98, reference compound] | – | – | – | – | – | – | – | slight reduction in circulating glucose levels | no increase in pancreatic insulin | active
